Assay results from US12466827B2, “1,3,4-oxadiazole derivative compounds as histone deacetylase 6 inhibitor, and the pharmaceutical composition comprising the same” (CHONG KUN DANG PHARMACEUTICAL CORP., priority 2020, dated 2025).
pIC50: −log10 of the molar value.

Columns and labels:
human recombinant HDAC6 = target: T1, human recombinant HDAC6 (Homo sapiens, UniProt Q9UBN7); assay: In vitro HDAC enzyme activity inhibition assay (HDAC6); assay type: biochemical; conditions: for HDAC6 selectivity (fold): HDAC6 over HDAC1; for pIC50: same protocol as the HDAC1 test, human recombinant HDAC6 (Calbiochem)
T1 construct: purchased Calbiochem Inc. 382180
T1 sequence (Q9UBN7 1-1215): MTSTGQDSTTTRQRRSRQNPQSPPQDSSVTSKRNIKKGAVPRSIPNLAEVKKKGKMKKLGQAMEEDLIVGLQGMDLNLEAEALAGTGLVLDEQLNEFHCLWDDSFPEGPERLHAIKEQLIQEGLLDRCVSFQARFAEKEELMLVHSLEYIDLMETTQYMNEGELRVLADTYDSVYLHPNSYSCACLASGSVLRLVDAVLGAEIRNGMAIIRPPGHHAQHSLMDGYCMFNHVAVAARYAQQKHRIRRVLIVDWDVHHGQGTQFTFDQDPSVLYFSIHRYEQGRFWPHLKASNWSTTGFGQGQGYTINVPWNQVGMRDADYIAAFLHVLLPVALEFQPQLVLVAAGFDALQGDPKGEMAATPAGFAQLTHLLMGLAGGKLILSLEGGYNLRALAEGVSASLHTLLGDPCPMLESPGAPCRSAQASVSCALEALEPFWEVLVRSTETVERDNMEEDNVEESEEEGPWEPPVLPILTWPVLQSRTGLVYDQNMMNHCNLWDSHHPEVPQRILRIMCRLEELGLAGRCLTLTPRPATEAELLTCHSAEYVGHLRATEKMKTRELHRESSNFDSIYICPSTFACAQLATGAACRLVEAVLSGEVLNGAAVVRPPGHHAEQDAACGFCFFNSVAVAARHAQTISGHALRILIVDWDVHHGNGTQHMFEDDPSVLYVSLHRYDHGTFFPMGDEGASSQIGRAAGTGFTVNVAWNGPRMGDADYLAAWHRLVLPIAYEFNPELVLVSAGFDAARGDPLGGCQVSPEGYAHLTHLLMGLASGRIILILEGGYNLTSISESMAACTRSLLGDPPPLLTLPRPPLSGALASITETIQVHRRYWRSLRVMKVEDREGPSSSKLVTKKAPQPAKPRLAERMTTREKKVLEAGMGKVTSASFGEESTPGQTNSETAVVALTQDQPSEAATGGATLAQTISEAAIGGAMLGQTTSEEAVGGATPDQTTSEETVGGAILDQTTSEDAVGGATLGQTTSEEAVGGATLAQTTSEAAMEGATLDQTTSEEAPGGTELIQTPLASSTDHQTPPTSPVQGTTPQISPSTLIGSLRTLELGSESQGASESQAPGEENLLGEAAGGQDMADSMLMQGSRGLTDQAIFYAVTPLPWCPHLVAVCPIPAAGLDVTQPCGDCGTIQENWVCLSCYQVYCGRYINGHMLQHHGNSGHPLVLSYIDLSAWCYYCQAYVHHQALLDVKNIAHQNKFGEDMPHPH
Method: (§1) In order to confirm the selectivity of the compounds represented by Chemical Formula I of the present invention to HDAC6 through HDAC1 and HDAC6 enzyme activity inhibition experiments, a comparison experiment was performed using the material that has already been developed as a control group.
(§2) HDAC enzyme activity was measured using the HDAC Fluorimetric Drug Discovery Kit (Enzo Life Sciences, Inc., BML-AK511, 516). For the HDAC1 enzyme activity test, human recombinant HDAC1 (BML-SE456) was used as an enzyme source and Fluor de Lys-SIRT1 (BNL-KI177) was used as a substrate. After dispensing 5-fold diluted compounds into a 96-well plate, 0.3 μg of enzyme and 10 μM substrate were added to each well of the plate and allowed to react at 30° C. for 60 minutes. Next, Fluor de Lys Developer II (BML-KI176) was added and reacted for 30 minutes to complete the reaction, and then the fluorescence values (Ex 360, Em 460) were measured using a multi-plate reader (Flexstation 3, Molecular Device). The HDAC6 enzymes were tested using human recombinant HDAC6 (382180) from Calbiochem Inc., according to the same protocol as the HDAC1 enzyme activity test method. With respect to the final result values, respective IC50 values were calculated using GraphPad Prism 4.0 program, and results thereof were summarized in Table 4 below.

human recombinant HDAC1 = target: T2, human recombinant HDAC1 (Homo sapiens, UniProt Q13547); assay: In vitro HDAC enzyme activity inhibition assay (HDAC1); assay type: biochemical; conditions: Fluor de Lys-SIRT1 substrate 10 μM, 30° C., 60 minutes, fluorescence
T2 construct: purchased Enzo Life Sciences, Inc. BML-SE456
Method: as §1, §2

T2 sequence (Q13547 whole entry): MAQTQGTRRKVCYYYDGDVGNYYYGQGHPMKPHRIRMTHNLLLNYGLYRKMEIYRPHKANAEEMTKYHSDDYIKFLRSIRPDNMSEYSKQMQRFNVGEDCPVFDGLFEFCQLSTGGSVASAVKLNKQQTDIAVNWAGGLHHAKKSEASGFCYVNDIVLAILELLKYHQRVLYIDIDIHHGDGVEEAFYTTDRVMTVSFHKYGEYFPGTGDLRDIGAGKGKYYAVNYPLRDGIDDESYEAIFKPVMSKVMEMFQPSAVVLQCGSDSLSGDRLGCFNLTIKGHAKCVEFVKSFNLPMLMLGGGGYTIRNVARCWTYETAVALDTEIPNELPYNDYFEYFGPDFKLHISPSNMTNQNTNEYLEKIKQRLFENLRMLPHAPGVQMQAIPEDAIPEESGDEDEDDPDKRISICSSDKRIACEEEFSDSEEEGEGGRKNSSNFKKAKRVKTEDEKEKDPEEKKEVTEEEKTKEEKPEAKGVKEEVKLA

| SMILES | HDAC6 selectivity (fold) (human recombinant HDAC6) | pIC50 (human recombinant HDAC6) | pIC50 (human recombinant HDAC1) |
| --- | --- | --- | --- |
| O=C(CO)N1CCN(S(=O)(=O)N(Cc2cn3ccc(-c4nnc(C(F)F)o4)cc3n2)c2ccccc2)CC1 [Compound 4267, N-((7-(5-(difluoromethyl)-1,3,4-oxadiazol-2-yl)imidazo[1,2-a]pyridin-2-yl)methyl)-4-(2-hydroxyacetyl)-N-phenylpiperazine-1-sulfonamide] | 524 | 7.02 | < 4.30 |
| O=S(=O)(C1CCN(c2ncccn2)CC1)N(Cc1cn2ccc(-c3nnc(C(F)F)o3)cc2n1)c1cccc(F)c1 [Compound 4255, N-((7-(5-(difluoromethyl)-1,3,4-oxadiazol-2-yl)imidazo[1,2-a]pyridin-2-yl)methyl)-N-(3-fluorophenyl)-1-(pyrimidin-2-yl)piperidine-4-sulfonamide] | 463 | 6.97 | < 4.30 |
| CN1CCN(S(=O)(=O)N(Cc2cn3ccc(-c4nnc(C(F)F)o4)cc3n2)c2ccccc2)CC1 [Compound 4256, N-((7-(5-(difluoromethyl)-1,3,4-oxadiazol-2-yl)imidazo[1,2-a]pyridin-2-yl)methyl)-4-methyl-N-phenylpiperazine-1-sulfonamide] | 630 | 7.10 | < 4.30 |
| CC(=O)N1CCC(S(=O)(=O)N(Cc2cn3ccc(-c4nnc(C(F)F)o4)cc3n2)c2ccccc2)CC1 [Compound 4221, 1-acetyl-N-((7-(5-(difluoromethyl)-1,3,4-oxadiazol-2-yl)imidazo[1,2-a]pyridin-2-yl)methyl)-N-phenylpiperidine-4-sulfonamide] | 364 | 6.86 | < 4.30 |
| O=C(C1COC1)N1CCN(S(=O)(=O)N(Cc2cn3ccc(-c4nnc(C(F)F)o4)cc3n2)c2ccccc2)CC1 [Compound 4269, N-((7-(5-(difluoromethyl)-1,3,4-oxadiazol-2-yl)imidazo[1,2-a]pyridin-2-yl)methyl)-4-(oxetan-3-carbonyl)-N-phenylpiperazine-1-sulfonamide] | 259 | 6.71 | < 4.30 |
| O=S(=O)(N1CCN(C2CCC(F)(F)CC2)CC1)N(Cc1cn2ccc(-c3nnc(C(F)F)o3)cc2n1)c1ccccc1 [Compound 4264] | 246 | 6.69 | < 4.30 |
| O=S(=O)(C1CCN(C2CCC(F)(F)CC2)CC1)N(Cc1cn2ccc(-c3nnc(C(F)F)o3)cc2n1)c1ccccc1 [Compound 4220, 1-(4,4-difluorocyclohexyl)-N-((7-(5-(difluoromethyl)-1,3,4-oxadiazol-2-yl)imidazo[1,2-a]pyridin-2-yl)methyl)-N-phenylpiperidine-4-sulfonamide] | 320 | 6.81 | < 4.30 |
| CC(C)N1CCC(S(=O)(=O)N(Cc2cn3ccc(-c4nnc(C(F)F)o4)cc3n2)c2ccccc2)CC1 [Compound 4215, N-((7-(5-(difluoromethyl)-1,3,4-oxadiazol-2-yl)imidazo[1,2-a]pyridin-2-yl)methyl)-1-isopropyl-N-phenylpiperidine-4-sulfonamide] | 275 | 6.74 | < 4.30 |
| O=S(=O)(N1CCN(C2COC2)CC1)N(Cc1cn2ccc(-c3nnc(C(F)F)o3)cc2n1)c1cccc(F)c1 [Compound 4302] | 737 | 7.17 | < 4.30 |
| CCN1CCC(S(=O)(=O)N(Cc2cn3ccc(-c4nnc(C(F)F)o4)cc3n2)c2ccccc2)CC1 [Compound 4214, N-((7-(5-(difluoromethyl)-1,3,4-oxadiazol-2-yl)imidazo[1,2-a]pyridin-2-yl)methyl)-1-ethyl-N-phenylpiperidine-4-sulfonamide] | 278 | 6.75 | < 4.30 |

The remaining lines, values ahead:

| HDAC6 selectivity (fold) (human recombinant HDAC6) | pIC50 (human recombinant HDAC6) | pIC50 (human recombinant HDAC1) | SMILES |
| --- | --- | --- | --- |
| 432 | 6.94 | < 4.30 | COC(=O)N1CCC(S(=O)(=O)N(Cc2cn3ccc(-c4nnc(C(F)F)o4)cc3n2)c2ccccc2)CC1 [Compound 4226, methyl 4-(N-((7-(5-(difluoromethyl)-1,3,4-oxadiazol-2-yl)imidazo[1,2-a]pyridin-2-yl)methyl)-N-phenylsulfamoyl)piperidine-1-carboxylate] |
| 1055 | 7.32 | < 4.30 | CC(=O)N1CCC(S(=O)(=O)N(Cc2cn3ccc(-c4nnc(C(F)F)o4)cc3n2)c2cccc(F)c2)CC1 [Compound 4245, 1-acetyl-N-((7-(5-(difluoromethyl)-1,3,4-oxadiazol-2-yl)imidazo[1,2-a]pyridin-2-yl)methyl)-N-(3-fluorophenyl)piperidine-4-sulfonamide] |
| 595 | 7.08 | < 4.30 | O=S(=O)(N1CCN(C2CCC2)CC1)N(Cc1cn2ccc(-c3nnc(C(F)F)o3)cc2n1)c1cccc(F)c1 [Compound 4301, 4-cyclobutyl-N-((7-(5-(difluoromethyl)-1,3,4-oxadiazol-2-yl)imidazo[1,2-a]pyridin-2-yl)methyl)-N-(3-fluorophenyl)piperazine-1-sulfonamide] |
| 389 | 6.89 | < 4.30 | O=C(C1CCC1)N1CCN(S(=O)(=O)N(Cc2cn3ccc(-c4nnc(C(F)F)o4)cc3n2)c2ccccc2)CC1 [Compound 4268, 4-(cyclobutanecarbonyl)-N-((7-(5-(difluoromethyl)-1,3,4-oxadiazol-2-yl)imidazo[1,2-a]pyridine-2-yl)methyl)-N-phenylpiperazine-1-sulfonamide] |
| 431 | 6.94 | < 4.30 | CCC(=O)N1CCN(S(=O)(=O)N(Cc2cn3ccc(-c4nnc(C(F)F)o4)cc3n2)c2ccccc2)CC1 [Compound 4266, N-((7-(5-(difluoromethyl)-1,3,4-oxadiazol-2-yl)imidazo[1,2-a]pyridin-2-yl)methyl)-N-phenyl-4-propionylpiperazine-1-sulfonamide] |
| 549 | 7.04 | < 4.30 | CN1CCC(S(=O)(=O)N(Cc2cn3ccc(-c4nnc(C(F)F)o4)cc3n2)c2ccccc2)CC1 [Compound 3778, N-((7-(5-(difluoromethyl)-1,3,4-oxadiazol-2-yl)imidazo[1,2-a]pyridin-2-yl)methyl)-1-methyl-N-phenylpiperidine-4-sulfonamide] |
| 525 | 7.02 | < 4.30 | CS(=O)(=O)N1CCC(S(=O)(=O)N(Cc2cn3ccc(-c4nnc(C(F)F)o4)cc3n2)c2cccc(F)c2)CC1 [Compound 4251, N-((7-(5-(difluoromethyl)-1,3,4-oxadiazol-2-yl)imidazo[1,2-a]pyridin-2-yl)methyl)-N-(3-fluorophenyl)-1-(methylsulfonyl)piperidine-4-sulfonamide] |
| 365 | 6.86 | < 4.30 | CCC(=O)N1CCN(S(=O)(=O)N(Cc2cn3ccc(-c4nnc(C(F)F)o4)cc3n2)c2cccc(F)c2)CC1 [Compound 4307, N-((7-(5-(difluoromethyl)-1,3,4-oxadiazol-2-yl)imidazo[1,2-a]pyridin-2-yl)methyl)-N-(3-fluorophenyl)-4-propionylpiperazine-1-sulfonamide] |
